From US4588725A, “2-piperazinyl-quinazoline derivatives and pharmaceutical compositions containing them” (Sandoz Ltd., priority 1982, dated 1986)
pIC50: −log10 of the molar value.

Legend:
[1] = system: sleep/wake cycle (sleep phase II, paradoxical sleep); assay: sleep/wake cycle in rats; type: in vivo
Procedure: Furthermore, the compounds on administration of 2-20 mg/kg p.o. to rats increase the sleep phase II and decrease the paradoxical sleep in the sleep/wake cycle carried out in accordance with the principles of H. Kleinlogel et al., European J. Pharmacol. 33, 159-163 (1975). […]

locomotion = assay: inhibition of locomotion in mice; type: in vivo, mice (male, OF-1); conditions: Mus musculus, po, minimum dose with significant inhibition, p.o., 1 hour after administration, read-out: Locomotor inhibition EDmin
Procedure: In particular, the compounds of formula I are useful as neuroleptic agents in the treatment of e.g. psychotic disorders such as schizophrenia, as indicated in standard tests, e.g. by an inhibition of locomotion in mice. In this test groups of 3 male mice (18-24 g, OF-1, Sandoz Basle) received 3.2, 10, 32, 100 and […]. of the test drug. 1 hour after drug administration the mice were observed individually and their locomotion compared with that of control. The locomotion of the animals was observed and the EDmin (the minimum dose at which significant inhibition was observed) determined.

[2] = target: T1, 3H-spiperone binding sites (Bos taurus, UniProt P20288); assay: 3H-spiperone binding in calf brain striatal tissue; conditions: for pIC50: calf striatal membranes, 0.1 nM 3H-spiperone, 5×10^-7 M cinanserin, pH 7.7, 40 min room temperature, read-out: Receptor binding IC50 3H-spiperone; for effect in the 3H-spiperone binding test compared with Clozapine: in words, versus Clozapine
T1 construct: fresh calf brain striatal tissue was homogenized; from tissue; host or cells: calf brain striatum, membranes
Procedure: The compounds of the invention bind further on ^3 H-spiperone binding sites in the brain [modified method of J. Leysen et al., Biochem. Pharmac. […] The test was performed as follows: fresh calf brain striatal tissue was homogenized in the 25 fold volume of tris buffer (pH 7.4, 50 mM, 120 mM sodium chloride) and centrifuged. The pellets were suspended in the 22 fold volume of tris buffer, incubated for 15 minutes at 37° C. and centrifuged. The pellets were suspended in the 300 fold volume of tris buffer. […] After incubation for 40 minutes at room temperature, the assay mixtures were rapidly filtered through Whatman GF/B filter, the filters washed twice with 5 ml of ice cold tris buffer and scintillation-counted.

[3] = system: blood pressure or heart rate; assay: blood pressure / heart rate in anaesthetized normotonic rats; type: in vivo, female normotonic rats (Sprague-Dawley); conditions: Rattus norvegicus, iv, cumulative i.v. doses, by interpolation, read-out: ED75 (dose required to reduce the blood pressure or the heart rate to 75% of pretreatment values)
Procedure: In another test female normotonic rats (200-350 g, Sprague-Dawley, Suddeutsche Tierfarm, Tuttlingen, FRG) were anaesthetized with urethane (1.5-1.75 g/kg i.p. in 2 portions) and a tracheal cannula was inserted. Blood pressure and heart rate were recorded from the carotid artery by conventional methods. Test drugs were administered by the jugular or the femoral vein. Body temperature was maintained at 34° C. by means of a temperature regulator (Alfos MK-4) triggered by a thermistor on the animal. After adaptation, increasing doses of the test drug were injected i.v. to give the following cumulative doses: 3, 13, 43, 143, 343 and 1443 μg/kg. ED 75% is the dose required to reduce the blood pressure or the heart rate to 75% of pretreatment values. It was obtained through interpolation. The ED75 of the Example 3a compound is 524 μg/kg i.v.

α1-receptors = assay: 3H-Prazosin binding assay for α1-receptors in calf brain cortex tissue; conditions: calf brain cortex membranes, 0.3 nM 3H-Prazosin, pH 7.7, 40 min room temperature; read-out: IC50 (inhibition of specific 3H-Prazosin binding)
Procedure: The compounds of the invention are furthermore useful as anti-hypertensive agents, as indicated in standard tests, for example in the ^3 H-Prazosin binding assay for α1 -receptors [modified method of Greengrass P., et al., Eur. J. Pharmac. 55, 323-326 (1979)]. The test was performed as follows:
Fresh calf brain cortex tissue is homogenized in a 20 fold volume of Tris-HCl buffer (50 mM, pH 7.7), using a Polytron PT 20, and centrifuged at 30,000×g for 25 min. The pellets are resuspended in a 13 fold volume of the same buffer, incubated for 15 min at 37° C., and recentrifuged at 50,000×g for 11 min. The pellets of this centrifugation are frozen at -20° C. and resuspended in a 60 fold volume of the same buffer as above before use for the binding experiment. The composition of the assay mixtures (total volume=2 ml) is as follows: 50 mM Tris-HCl pH 7.7, membranes corresponding to 30 mg of original tissue weight, and 0.3 nM ^3 H-Prazosin. The assays for the definition of nonspecific binding additionally contain phentolamine at a concentration of 10 μM. To assess the potency of drugs in inhibiting specific ^3 H-Prazosin binding (difference between total and nonspecific binding), the test compounds are added to give 5 to 9 different concentrations between 1 nM and 10 μM, each in duplicate. […] The radioactivity of the filters is estimated by scintillation counting.

T1 sequence (P20288 whole entry): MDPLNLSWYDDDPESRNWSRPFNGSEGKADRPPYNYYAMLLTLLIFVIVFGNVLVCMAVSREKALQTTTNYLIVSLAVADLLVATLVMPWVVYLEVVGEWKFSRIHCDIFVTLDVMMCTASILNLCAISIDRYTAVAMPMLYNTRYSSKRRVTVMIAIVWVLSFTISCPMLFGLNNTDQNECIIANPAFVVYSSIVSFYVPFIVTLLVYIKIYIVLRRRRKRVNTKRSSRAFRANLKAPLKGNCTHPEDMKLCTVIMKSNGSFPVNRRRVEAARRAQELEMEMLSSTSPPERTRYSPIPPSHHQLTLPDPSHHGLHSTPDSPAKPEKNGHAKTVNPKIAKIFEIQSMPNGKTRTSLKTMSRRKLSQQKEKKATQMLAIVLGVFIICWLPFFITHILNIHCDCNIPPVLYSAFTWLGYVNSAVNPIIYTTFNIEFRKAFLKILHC

pIC50 [2] | pIC50 (α1-receptors) | SMILES | Sleep phase II ([1]; 10 mg/kg po) | paradoxical sleep ([1]; 10 mg/kg po) | minimal effective dose (locomotion) [mg/kg] | effect in the 3H-spiperone binding test compared with Clozapine [2] | ED75 [3] [mg/kg] | Sleep phase II ([1]; 3.2 mg/kg po) | paradoxical sleep ([1]; 3.2 mg/kg po)
 |  | CN1CCN(C2=Nc3cc(Cl)ccc3Nc3ccccc32)CC1 [clozapine, reference compound] | 483 % of control | 26 % of control | 3.2 |  |  |  | 
6.47 |  | O=C(CCCN1CCN(c2nc(-c3ccccc3)c3ccccc3n2)CC1)c1ccc(F)cc1 [Example 3e] | 607 % of control | 9 % of control | < 3.2 | stronger effects in the ^3 H-spiperone binding test than Clozapine |  |  | 
 | 8.46 | Cc1nc(N2CCN(CCCC(=O)c3ccc(F)cc3)CC2)nc2ccccc12 [Example 3a] |  |  |  |  | 0.524 |  | 
6.46 |  | O=C(CCCN1CCN(c2ncc3ccccc3n2)CC1)c1ccc(F)cc1 [Example 1, 4-[4-(Quinazolin-2-yl)-1-piperazinyl]-1-(4-fluorophenyl)-1-butanone] |  |  | 3.3 | stronger effects in the ^3 H-spiperone binding test than Clozapine |  | 171 % of control | 92 % of control
